PubChem BioAssay (NCI)
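Briefly, cells in 96-well plates were exposed to five compound concentrations for 48 h, and endpoints were estimated by linear interpolation. GI50 = concentration required for 50% inhibition of growth. TGI marks complete inhibition of growth.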

Tests used:
Assay in all cases: NCI-60 cell line screen, 48 h
ACHN renal = system: ACHN renal
SW-620 colon = system: SW-620 colon
DU-145 prostate = system: DU-145 prostate
CCRF-CEM leukemia = system: CCRF-CEM leukemia
RPMI-8226 leukemia = system: RPMI-8226 leukemia
SNB-19 CNS = system: SNB-19 CNS
LOX IMVI melanoma = system: LOX IMVI melanoma
TK-10 renal = system: TK-10 renal
NCI-H522 lung = system: NCI-H522 lung
SK-MEL-5 melanoma = system: SK-MEL-5 melanoma
OVCAR-4 ovarian = system: OVCAR-4 ovarian
SF-268 CNS = system: SF-268 CNS
OVCAR-5 ovarian = system: OVCAR-5 ovarian
SK-OV-3 ovarian = system: SK-OV-3 ovarian
NCI/ADR-RES ovarian = system: NCI/ADR-RES ovarian
EKVX NSCLC = system: EKVX NSCLC
SNB-75 CNS = system: SNB-75 CNS
SK-MEL-28 melanoma = system: SK-MEL-28 melanoma
786-0 renal = system: 786-0 renal
HCT-15 colon = system: HCT-15 colon
SN12C renal = system: SN12C renal
MDA-MB-435 = system: MDA-MB-435
MDA-MB-231 breast = system: MDA-MB-231 breast
SF-539 CNS = system: SF-539 CNS
M14 melanoma = system: M14 melanoma
NCI-H23 lung = system: NCI-H23 lung
HL-60(TB) leukemia = system: HL-60(TB) leukemia
HOP-62 NSCLC = system: HOP-62 NSCLC

SMILES: Cc1[nH]ncc1-c1cc2nc(C3CC4CCN3CC4)[nH]c(=O)c2s1 (stereo not given)
- TGI (ACHN renal): > 100 µM
- GI50 (SW-620 colon): 2.65 µM
- TGI (SW-620 colon): > 100 µM
- GI50 (DU-145 prostate): 3 µM
- TGI (DU-145 prostate): > 100 µM
- GI50 (CCRF-CEM leukemia): 2.36 µM
- TGI (CCRF-CEM leukemia): > 100 µM
- GI50 (RPMI-8226 leukemia): 18.2 µM
- TGI (RPMI-8226 leukemia): > 100 µM
- GI50 (SNB-19 CNS): 4.78 µM
- TGI (SNB-19 CNS): > 100 µM
- GI50 (LOX IMVI melanoma): 1.46 µM
- TGI (LOX IMVI melanoma): 21.1 µM
- GI50 (TK-10 renal): 1.9 µM
- TGI (TK-10 renal): > 100 µM
- GI50 (NCI-H522 lung): 2.75 µM
- TGI (NCI-H522 lung): 39.4 µM
- GI50 (SK-MEL-5 melanoma): 2.77 µM
- TGI (SK-MEL-5 melanoma): 52.9 µM
- GI50 (OVCAR-4 ovarian): 9.68 µM
- TGI (OVCAR-4 ovarian): > 100 µM
- GI50 (SF-268 CNS): 3.8 µM
- TGI (SF-268 CNS): > 100 µM
- GI50 (OVCAR-5 ovarian): 3.33 µM
- TGI (OVCAR-5 ovarian): > 100 µM
- GI50 (SK-OV-3 ovarian): 14.5 µM
- TGI (SK-OV-3 ovarian): > 100 µM
- GI50 (NCI/ADR-RES ovarian): 11.8 µM
- TGI (NCI/ADR-RES ovarian): > 100 µM
- GI50 (EKVX NSCLC): 4.3 µM
- TGI (EKVX NSCLC): 90.2 µM
- GI50 (SNB-75 CNS): 1.01 µM
- TGI (SNB-75 CNS): 9.55 µM
- GI50 (SK-MEL-28 melanoma): 4.94 µM
- TGI (SK-MEL-28 melanoma): > 100 µM
- GI50 (786-0 renal): 2.92 µM
- TGI (786-0 renal): > 100 µM
- GI50 (HCT-15 colon): 2.44 µM
- TGI (HCT-15 colon): > 100 µM
- GI50 (SN12C renal): 3.31 µM
- TGI (SN12C renal): > 100 µM
- GI50 (MDA-MB-435): 4.45 µM
- TGI (MDA-MB-435): 30 µM
- GI50 (MDA-MB-231 breast): 4.89 µM
- TGI (MDA-MB-231 breast): > 100 µM
- GI50 (SF-539 CNS): 1.47 µM
- TGI (SF-539 CNS): 7.74 µM
- GI50 (M14 melanoma): 4.49 µM
- TGI (M14 melanoma): 83.5 µM
- GI50 (NCI-H23 lung): 3.82 µM
- TGI (NCI-H23 lung): > 100 µM
- GI50 (HL-60(TB) leukemia): 2.06 µM
- TGI (HL-60(TB) leukemia): 6.15 µM
- GI50 (HOP-62 NSCLC): 2.83 µM
- TGI (HOP-62 NSCLC): > 100 µM
